The results in this text go back to article PMC5218480 (PLoS ONE, 2017).

The assay relates to MV-4-11 cells. The assay is described as follows: Gene expression microarray analysis (Affymetrix PrimeView) and GSEA. The assay is classed as cell-based, human. The settings on record: MV-4-11 cells, 48 hours. Also noted: RFU PODN (11730768_x_at) / Fold change /veh PODN (11730768_x_at) / RFU LINC00158 (11744669_a_at) / Fold change /veh LINC00158 (11744669_a_at) / RFU DUSP10 (11751237_a_at) / Fold change /veh DUSP10 (11751237_a_at) / RFU ID3 (11757404_x_at) / Fold change /veh ID3 (11757404_x_at) / RFU PLEKHG5 (11737974_s_at) / Fold change /veh PLEKHG5 (11737974_s_at) / RFU LRRC4B (11730491_at) / Fold change /veh LRRC4B (11730491_at) / RFU GIMAP4 (11747438_a_at) / Fold change /veh GIMAP4 (11747438_a_at) / RFU KRT8 (11758183_x_at) / Fold change /veh KRT8 (11758183_x_at) / RFU CNN1 (11734310_a_at) / Fold change /veh CNN1 (11734310_a_at) / RFU VPS37D (11726825_at) / Fold change /veh VPS37D (11726825_at) / RFU C10orf10 (11716522_x_at) / Fold change /veh C10orf10 (11716522_x_at) / RFU KIR2DL2 /// KIR2DL4 /// KIR2DL5A /// KIR2DL5B /// KIR2DS1 /// KIR2DS2 /// KIR2DS3 /// KIR2DS4 /// KIR3DL3 /// KIR3DL3 /// KIR3DS1 (11738374_at) / Fold change /veh KIR2DL2 /// KIR2DL4 /// KIR2DL5A /// KIR2DL5B /// KIR2DS1 /// KIR2DS2 /// KIR2DS3 /// KIR2DS4 /// KIR3DL3 /// KIR3DL3 /// KIR3DS1 (11738374_at) / RFU C1QL1 (11718748_at) / Fold change /veh C1QL1 (11718748_at) / RFU TMPRSS4 (11747572_a_at) / Fold change /veh TMPRSS4 (11747572_a_at) / RFU HAMP (11756126_x_at) / Fold change /veh HAMP (11756126_x_at) / RFU RNFT2 (11725882_a_at) / Fold change /veh RNFT2 (11725882_a_at) / RFU NR4A2 (11747474_a_at) / Fold change /veh NR4A2 (11747474_a_at) / RFU ABCC12 (11746883_a_at) / Fold change /veh ABCC12 (11746883_a_at) / RFU TMEM136 (11760407_x_at) / Fold change /veh TMEM136 (11760407_x_at) / RFU CLDN22 /// WWC2 (11732394_at) / Fold change /veh CLDN22 /// WWC2 (11732394_at) / RFU HLA-DPB1 (11760878_x_at) / Fold change /veh HLA-DPB1 (11760878_x_at) / RFU SPINT1 (11716480_a_at) / Fold change /veh SPINT1 (11716480_a_at) / RFU GAP43 (11754022_s_at) / Fold change /veh GAP43 (11754022_s_at) / RFU A4GNT (11735810_at) / Fold change /veh A4GNT (11735810_at) / RFU PRB3 (11715151_x_at) / Fold change /veh PRB3 (11715151_x_at) / RFU TUBB4B (11761932_at) / Fold change /veh TUBB4B (11761932_at) / RFU CAPN14 (11732068_a_at) / Fold change /veh CAPN14 (11732068_a_at) / RFU TMCC2 (11721928_a_at) / Fold change /veh TMCC2 (11721928_a_at) / RFU IRGQ (11745062_a_at) / Fold change /veh IRGQ (11745062_a_at) / RFU FAM174B (11720279_a_at) / Fold change /veh FAM174B (11720279_a_at) / RFU TMPRSS4 (11748680_a_at) / Fold change /veh TMPRSS4 (11748680_a_at) / RFU FAM212B (11763350_a_at) / Fold change /veh FAM212B (11763350_a_at) / RFU PLEKHG5 (11743358_a_at) / Fold change /veh PLEKHG5 (11743358_a_at) / RFU ZSCAN30 (11745921_a_at) / Fold change /veh ZSCAN30 (11745921_a_at) / RFU CMKLR1 (11741424_a_at) / Fold change /veh CMKLR1 (11741424_a_at) / RFU LOC101060620 /// MAPK8IP1 (11723275_at) / Fold change /veh LOC101060620 /// MAPK8IP1 (11723275_at) / RFU SPTSSB (11747773_x_at) / Fold change /veh SPTSSB (11747773_x_at) / RFU PRSS12 (11739890_at) / Fold change /veh PRSS12 (11739890_at) / RFU BIN1 (11741810_x_at) / Fold change /veh BIN1 (11741810_x_at) / RFU WNT11 (11732464_a_at) / Fold change /veh WNT11 (11732464_a_at) / RFU C10orf10 (11716521_a_at) / Fold change /veh C10orf10 (11716521_a_at) / RFU C5orf56 (11738089_at) / Fold change /veh C5orf56 (11738089_at) / RFU CYB561 (11721691_x_at) / Fold change /veh CYB561 (11721691_x_at) / RFU ANKRD19P (11752326_a_at) / Fold change /veh ANKRD19P (11752326_a_at) / RFU OR2T12 /// OR2T33 /// OR2T8 (11738714_s_at) / Fold change /veh OR2T12 /// OR2T33 /// OR2T8 (11738714_s_at) / RFU VCAN (11748164_a_at) / Fold change /veh VCAN (11748164_a_at) / RFU JSRP1 (11732532_at) / Fold change /veh JSRP1 (11732532_at) / RFU KRTAP10-11 (11738290_x_at) / Fold change /veh KRTAP10-11 (11738290_x_at) / RFU MYO3A (11730013_a_at) / Fold change /veh MYO3A (11730013_a_at) / RFU EBF3 (11725865_a_at) / Fold change /veh EBF3 (11725865_a_at) / RFU CAMK2N1 (11719241_x_at) / Fold change /veh CAMK2N1 (11719241_x_at) / RFU C5orf56 (11738088_a_at) / Fold change /veh C5orf56 (11738088_a_at) / RFU OLFML3 (11715873_a_at) / Fold change /veh OLFML3 (11715873_a_at) / RFU LOC100653217 /// NTM (11731650_a_at) / Fold change /veh LOC100653217 /// NTM (11731650_a_at) / RFU MAPK11 (11762145_a_at) / Fold change /veh MAPK11 (11762145_a_at) / RFU FIZ1 (11724087_x_at) / Fold change /veh FIZ1 (11724087_x_at) / RFU OASL (11726364_x_at) / Fold change /veh OASL (11726364_x_at) / RFU SOX15 (11748057_x_at) / Fold change /veh SOX15 (11748057_x_at) / RFU CD79A (11719716_a_at) / Fold change /veh CD79A (11719716_a_at) / RFU HIST1H1D (11736915_at) / Fold change /veh HIST1H1D (11736915_at) / RFU CASKIN2 (11723855_a_at) / Fold change /veh CASKIN2 (11723855_a_at) / RFU LOC730098 (11760151_x_at) / Fold change /veh LOC730098 (11760151_x_at) / RFU OR4N2 (11742367_at) / Fold change /veh OR4N2 (11742367_at) / RFU PRRT2 (11749266_a_at) / Fold change /veh PRRT2 (11749266_a_at) / RFU SNX32 (11753110_a_at) / Fold change /veh SNX32 (11753110_a_at) / RFU CDHR5 (11726645_a_at) / Fold change /veh CDHR5 (11726645_a_at) / RFU RCAN1 (11760418_a_at) / Fold change /veh RCAN1 (11760418_a_at) / RFU FAM167A (11723789_a_at) / Fold change /veh FAM167A (11723789_a_at) / RFU FAM26E (11764081_at) / Fold change /veh FAM26E (11764081_at) / RFU ISYNA1 (11749810_s_at) / Fold change /veh ISYNA1 (11749810_s_at) / RFU ACY1 (11761880_at) / Fold change /veh ACY1 (11761880_at) / RFU 11764098_at / Fold change /veh 11764098_at / RFU SAMD14 (11745864_x_at) / Fold change /veh SAMD14 (11745864_x_at) / RFU NPB (11741838_a_at) / Fold change /veh NPB (11741838_a_at) / RFU TMPRSS6 (11731388_a_at) / Fold change /veh TMPRSS6 (11731388_a_at) / RFU KRTAP10-2 (11738614_at) / Fold change /veh KRTAP10-2 (11738614_at) / RFU ARHGAP8 /// PRR5-ARHGAP8 (11727945_x_at) / Fold change /veh ARHGAP8 /// PRR5-ARHGAP8 (11727945_x_at) / RFU KRTAP5-7 /// NADSYN1 (11734609_at) / Fold change /veh KRTAP5-7 /// NADSYN1 (11734609_at) / RFU RASL12 (11751679_a_at) / Fold change /veh RASL12 (11751679_a_at) / RFU CDKN2B (11736163_a_at) / Fold change /veh CDKN2B (11736163_a_at) / RFU PRF1 (11729649_at) / Fold change /veh PRF1 (11729649_at) / RFU, ZNF638 /// ZNF638-IT1 / Fold change vs veh, ZNF638 /// ZNF638-IT1 / RFU, PANK3 / Fold change vs veh, PANK3 / RFU, SH3YL1 / Fold change vs veh, SH3YL1 / RFU, ZEB2 / Fold change vs veh, ZEB2 / RFU, NRIP1 / Fold change vs veh, NRIP1 / RFU, PTTG1IP / Fold change vs veh, PTTG1IP / RFU, CAPN2 / Fold change vs veh, CAPN2 / RFU, MED14 / Fold change vs veh, MED14 / RFU, SNORA58 / Fold change vs veh, SNORA58 / RFU, C1orf63 / Fold change vs veh, C1orf63 / RFU, LRRFIP1 / Fold change vs veh, LRRFIP1 / RFU, NDUFAF7 / Fold change vs veh, NDUFAF7 / RFU, SLC12A2 / Fold change vs veh, SLC12A2 / RFU, IBTK / Fold change vs veh, IBTK / RFU, ESF1 / Fold change vs veh, ESF1 / Fold change vs veh, TMEM50B / RFU, TAOK1 / Fold change vs veh, TAOK1 / RFU, ACBD3 / Fold change vs veh, ACBD3 / RFU, TMA16 / Fold change vs veh, TMA16 / RFU, RWDD3 / Fold change vs veh, RWDD3 / RFU, BCAT1 / Fold change vs veh, BCAT1 / RFU, EDEM3 / Fold change vs veh, EDEM3 / RFU, TMEM33 / Fold change vs veh, TMEM33 / RFU, WDR75 / Fold change vs veh, WDR75 / RFU, AHCTF1 / Fold change vs veh, AHCTF1 / RFU, TFRC / Fold change vs veh, TFRC / RFU, ZDHHC17 / Fold change vs veh, ZDHHC17 / RFU, NOM1 / Fold change vs veh, NOM1 / RFU, ARL8B / Fold change vs veh, ARL8B / RFU, ZBTB11 / Fold change vs veh, ZBTB11 / RFU, TAMM41 / Fold change vs veh, TAMM41 / RFU, KIAA1704 /// LOC100996395 / Fold change vs veh, KIAA1704 /// LOC100996395 / RFU, ING1 / Fold change vs veh, ING1 / RFU, TRMT61B / Fold change vs veh, TRMT61B / RFU, FUBP3 / Fold change vs veh, FUBP3 / RFU, TP53 / Fold change vs veh, TP53 / RFU, TNKS2 / Fold change vs veh, TNKS2 / RFU, ZFP14 / Fold change vs veh, ZFP14 / RFU, ACTR2 / Fold change vs veh, ACTR2 / RFU, PPP3R1 / Fold change vs veh, PPP3R1 / RFU, PIK3R1 / Fold change vs veh, PIK3R1 / RFU, HNRNPA1 / Fold change vs veh, HNRNPA1 / RFU, RNF170 / Fold change vs veh, RNF170 / RFU, ZNF28 / Fold change vs veh, ZNF28 / RFU, RNGTT / Fold change vs veh, RNGTT / RFU, OGT / Fold change vs veh, OGT / RFU, BRD1 / Fold change vs veh, BRD1 / RFU, MARS / Fold change vs veh, MARS / RFU, ZNF655 / Fold change vs veh, ZNF655 / RFU, FAHD1 / Fold change vs veh, FAHD1 / RFU, BDP1 / Fold change vs veh, BDP1 / RFU, LRRCC1 / Fold change vs veh, LRRCC1 / RFU, ARID1A / Fold change vs veh, ARID1A / RFU, ZNF146 / Fold change vs veh, ZNF146 / RFU, ZNF330 / Fold change vs veh, ZNF330 / RFU, GPN3 / Fold change vs veh, GPN3 / RFU, C9orf123 / Fold change vs veh, C9orf123 / RFU, N4BP2L2 / Fold change vs veh, N4BP2L2 / RFU, ARFIP1 / Fold change vs veh, ARFIP1 / RFU, FAM179B / Fold change vs veh, FAM179B / RFU, BCL10 / Fold change vs veh, BCL10 / RFU, UHRF1BP1L / Fold change vs veh, UHRF1BP1L / RFU, BET1 / Fold change vs veh, BET1 / RFU, CNOT2 / Fold change vs veh, CNOT2 / RFU, ZNF268 / Fold change vs veh, ZNF268 / Fold change vs veh, ZNF507 / RFU, DGCR2 / Fold change vs veh, DGCR2 / RFU, WDSUB1 / Fold change vs veh, WDSUB1 / Fold change vs veh, HSP90B1 /// MIR3652 / RFU, ADSS / Fold change vs veh, ADSS / RFU, GK / Fold change vs veh, GK / RFU, ZNF148 / Fold change vs veh, ZNF148 / RFU, TAF9 / Fold change vs veh, TAF9 / RFU, SLC1A5 / Fold change vs veh, SLC1A5 / RFU, SLMO2 / Fold change vs veh, SLMO2 / RFU, ABCC4 / Fold change vs veh, ABCC4 / RFU, LOC101060439 /// RAP1B / Fold change vs veh, LOC101060439 /// RAP1B / RFU, RFX7 / Fold change vs veh, RFX7 / RFU, GTPBP10 / Fold change vs veh, GTPBP10 / RFU, CNEP1R1 / Fold change vs veh, CNEP1R1 / RFU, BIVM-ERCC5 /// ERCC5 / Fold change vs veh, BIVM-ERCC5 /// ERCC5 / RFU, ILF3 / Fold change vs veh, ILF3 / RFU 11762660_at / Fold change /veh 11762660_at / RFU VCAN (11757783_s_at) / Fold change /veh VCAN (11757783_s_at) / RFU DDX43 (11728927_at) / Fold change /veh DDX43 (11728927_at) / RFU KRT8 (11758188_x_at) / Fold change /veh KRT8 (11758188_x_at) / RFU NKD1 (11759106_at) / Fold change /veh NKD1 (11759106_at) / RFU SRD5A1 (11742802_a_at) / Fold change /veh SRD5A1 (11742802_a_at) / RFU TPSAB1 /// TPSB2 (11721975_s_at) / Fold change /veh TPSAB1 /// TPSB2 (11721975_s_at) / RFU GSTM3 (11746129_a_at) / Fold change /veh GSTM3 (11746129_a_at) / RFU IL23R (11737362_x_at) / Fold change /veh IL23R (11737362_x_at) / RFU TMEM51 (11727254_a_at) / Fold change /veh TMEM51 (11727254_a_at) / RFU PIWIL2 (11732686_x_at) / Fold change /veh PIWIL2 (11732686_x_at) / RFU ORM1 (11744905_x_at) / Fold change /veh ORM1 (11744905_x_at) / RFU CCDC152 (11743942_at) / Fold change /veh CCDC152 (11743942_at) / RFU ECM1 (11717891_a_at) / Fold change /veh ECM1 (11717891_a_at) / RFU IL23R (11748794_a_at) / Fold change /veh IL23R (11748794_a_at) / RFU TNFAIP8L3 (11732012_x_at) / Fold change /veh TNFAIP8L3 (11732012_x_at) / RFU MBOAT4 (11741988_at) / Fold change /veh MBOAT4 (11741988_at) / RFU 11764193_at / Fold change /veh 11764193_at / RFU TMEM53 (11763286_at) / Fold change /veh TMEM53 (11763286_at) / RFU MAGEB2 (11727129_at) / Fold change /veh MAGEB2 (11727129_at) / RFU TMEM200A (11744735_a_at) / Fold change /veh TMEM200A (11744735_a_at) / RFU CCDC152 (11751479_a_at) / Fold change /veh CCDC152 (11751479_a_at) / RFU FAM211A (11726209_a_at) / Fold change /veh FAM211A (11726209_a_at) / RFU RGS16 (11746705_a_at) / Fold change /veh RGS16 (11746705_a_at) / RFU VCAN (11755009_s_at) / Fold change /veh VCAN (11755009_s_at) / RFU RHOB (11743442_s_at) / Fold change /veh RHOB (11743442_s_at) / RFU RGS16 (11720943_a_at) / Fold change /veh RGS16 (11720943_a_at) / RFU RGS16 (11720944_at) / Fold change /veh RGS16 (11720944_at) / RFU, VPS4B / Fold change vs veh, VPS4B / RFU, CREB1 / Fold change vs veh, CREB1 / RFU, DNAJC13 / Fold change vs veh, DNAJC13 / RFU, GNAQ / Fold change vs veh, GNAQ / RFU, CDK5R1 / Fold change vs veh, CDK5R1 / RFU, ZRANB3 / Fold change vs veh, ZRANB3 / RFU, CUL4A / Fold change vs veh, CUL4A / RFU, CCNY / Fold change vs veh, CCNY / RFU, UFL1 / Fold change vs veh, UFL1 / RFU, COG3 / Fold change vs veh, COG3 / RFU, DIAPH2 / Fold change vs veh, DIAPH2 / RFU, SKA2 / Fold change vs veh, SKA2 / RFU, AFF3 / Fold change vs veh, AFF3 / RFU, LMF1 / Fold change vs veh, LMF1 / RFU, IPO11 / Fold change vs veh, IPO11 / RFU, DFFB / Fold change vs veh, DFFB / RFU, FOXP1 / Fold change vs veh, FOXP1 / RFU, CARD8 / Fold change vs veh, CARD8 / RFU, STRN3 / Fold change vs veh, STRN3 / RFU, ADK / Fold change vs veh, ADK / RFU, RASSF2 / Fold change vs veh, RASSF2 / RFU, WIPF1 / Fold change vs veh, WIPF1 / RFU, LARP1B / Fold change vs veh, LARP1B / RFU, RASA1 / Fold change vs veh, RASA1 / RFU, RB1 / Fold change vs veh, RB1 / RFU, PPFIA1 / Fold change vs veh, PPFIA1 / RFU, MAT2A / Fold change vs veh, MAT2A / RFU, CCT5 / Fold change vs veh, CCT5 / RFU, WDR92 / Fold change vs veh, WDR92 / RFU, CUX1 / Fold change vs veh, CUX1 / RFU, TTC7A / Fold change vs veh, TTC7A / RFU, TMEM135 / Fold change vs veh, TMEM135 / RFU, DEPTOR / Fold change vs veh, DEPTOR / RFU, CPM / Fold change vs veh, CPM / RFU, DNAJB6 / Fold change vs veh, DNAJB6 / RFU, CACNA2D3 / Fold change vs veh, CACNA2D3 / RFU, DTX4 / Fold change vs veh, DTX4 / RFU, TFCP2 / Fold change vs veh, TFCP2 / RFU, GMCL1 /// GMCL1P1 / Fold change vs veh, GMCL1 /// GMCL1P1 / RFU, AEBP2 / Fold change vs veh, AEBP2 / RFU, SNHG1 /// SNORD22 /// SNORD25 /// SNORD26 /// SNORD27 /// SNORD28 /// SNORD29 /// SNORD31 / Fold change vs veh, SNHG1 /// SNORD22 /// SNORD25 /// SNORD26 /// SNORD27 /// SNORD28 /// SNORD29 /// SNORD31 / Fold change (Aza/veh), C12orf56 (ProbeSet 11735607_a_at) / Fold change (ACY-1035/veh), C12orf56 (ProbeSet 11735607_a_at) / Fold change (Aza/veh), FGFR1OP (ProbeSet 11751329_s_at) / Fold change (ACY-1035/veh), FGFR1OP (ProbeSet 11751329_s_at) / Fold change (Aza/veh), VPS36 (ProbeSet 11739960_a_at) / Fold change (ACY-1035/veh), VPS36 (ProbeSet 11739960_a_at) / RFU SYPL1 (11715823_x_at) / Fold change /veh SYPL1 (11715823_x_at) / RFU IGFBP7 (11715501_s_at) / Fold change /veh IGFBP7 (11715501_s_at) / RFU REEP3 (11722064_at) / Fold change /veh REEP3 (11722064_at) / RFU IGLL1 (11728026_x_at) / Fold change /veh IGLL1 (11728026_x_at): dose or concentration left out as unconfirmed.

Each structure is given as a SMILES string.

In the case of `Nc1ncn([C@@H]2O[C@H](CO)[C@@H](O)[C@H]2O)c(=O)n1` [azacitidine], the “Fold change /veh FIZ1 (11724087_x_at)” value turned out to be 1.09.
